{"source": "patent US12070443B2", "about": "“Methods of treating and preventing breast cancer with S-equol” (The Board of Regents of the University of Texas System, priority 2018, dated 2024)", "key": {"[1]": {"test_system": "AT3 mammary tumor cell line", "assay": "AT3 mammary tumor challenge in mice, S-equol and/or anti-PD-1", "type": "in vivo", "conditions": "AT3 tumors", "description": "The following three murine mammary tumor lines were tested to determine the effects of a PD-1 inhibitor, S-equol and a combination of the two therapies on tumor growth: (1) E0771 (B6 background), (2) AT-3 (B6 background), and (3) 4T1 (BalbC background). This experimental design includes four arms (using AT-3 as an example): (1) controls, (2) αPD-1, (3) S-equol, and (4) αPD-1+S-equol (FIG. 3) by injecting into mice 2×10^5 cells subcutaneously into the 4th mammary gland fat pad."}, "[2]": {"test_system": "MDA-MB-231 cell-derived xenograft tumor", "assay": "MDA-MB-231 xenograft in athymic nude mice", "type": "in vivo", "description": "Further work in a preclinical animal model supports the notion of using S-equol to treat TNBC breast cancer. In immunocompromised mouse xenograft experiments, which used MDA-MB-231, a human TNBC breast cancer cell line, growth of tumors was suppressed by 60% with S-equol treatment compared to control. 5×10^6 MDA-MB-231 cells were injected orthotopically into mammary gland fat pads of 6 week-old female athymic nude mice (Harlan). When the tumor masses reached 50 to 80 mm^3 (about one week after the inoculation), the mice were given daily subcutaneous injections of S-equol (20 or 60 mg/kg per day) or PBS as a vehicle control. Tumor development was followed by caliper measurements along two orthogonal axes: length (L) and width (W) and volume (V) was estimated by the formula V=[L×(W^2)]/2. Xenograft tumors harvested from mice were fixed in 10% neutral-buffered formalin, dehydrated, embedded in paraffin, and sectioned at 3 μm thickness. Representative tumor sections from vehicle control and S-equol-treated mice were tested for Ki-67 expression to assess cell proliferation, and for ERβ pY36. Statistical significance in the experiments was assessed by two-tailed Student's t test. In all assays, p<0.05 was considered statistically significant. See, Yuan et al. 2016 listed below, which is incorporated by reference herein for all purposes."}, "ERβ pY36": {"biological_target": "T1, ERβ pY36 (Homo sapiens, UniProt Q92731)", "T1 construct": "MDA-MB-231, a human TNBC breast cancer cell line; endogenous in cells; host or cells: MDA-MB-231 (human TNBC line; also as xenograft tumours in athymic nude mice)", "T1 sequence (Q92731 whole entry)": "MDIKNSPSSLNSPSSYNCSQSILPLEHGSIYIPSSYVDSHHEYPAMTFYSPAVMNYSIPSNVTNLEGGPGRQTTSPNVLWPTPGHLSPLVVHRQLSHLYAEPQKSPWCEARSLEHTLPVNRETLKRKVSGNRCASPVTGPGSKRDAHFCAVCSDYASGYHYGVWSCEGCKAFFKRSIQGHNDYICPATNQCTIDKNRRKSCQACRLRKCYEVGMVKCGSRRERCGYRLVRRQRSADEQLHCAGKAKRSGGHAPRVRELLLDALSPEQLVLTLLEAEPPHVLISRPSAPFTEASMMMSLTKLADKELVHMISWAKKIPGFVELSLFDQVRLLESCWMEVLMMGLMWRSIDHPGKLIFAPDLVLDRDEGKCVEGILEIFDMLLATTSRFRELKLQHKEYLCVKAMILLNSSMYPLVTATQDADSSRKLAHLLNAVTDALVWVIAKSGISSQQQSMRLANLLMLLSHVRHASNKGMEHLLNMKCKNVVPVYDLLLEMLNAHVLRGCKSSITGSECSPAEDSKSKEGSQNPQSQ", "assay": "pY36-specific phosphorylation signal in MDA-MB-231 cells", "type": "cell-based", "conditions": "MDA-MB-231 cells (FIG. 18A)"}, "TNBC [3]": {"test_system": "TNBC", "assay": "Pilot biomarker clinical study of Ki67 in TNBC subjects", "type": "in vivo, human", "description": "A pilot biomarker clinical study was performed in 20 subjects with documented TNBC to determine the effect of the ERβ agonist S-equol on Ki67 an indicator of tumor cell proliferation. Tumor cell proliferation was measured by immunohistological staining for Ki-67. See, FIG. 13 for the outline of the protocol. Ki-67 is encoded by the gene MKI67 gene and is required to maintain individual mitotic chromosomes dispersed in the cytoplasm following nuclear envelope disassembly. Measuring the fraction of Ki-67-positive cells in a tumor is known to be a reliable parameter for assessing cancer patient prognosis. Subjects with TNBC are known to have very high levels of Ki67.\nPatients enrolled in the study received a history, physical, laboratory assessment, radiological imaging, and diagnostic biopsies. Immunohistochemistry (IHC) of Ki67 (proliferation marker), total ERβ, and pY36-ERβ (phosphorylated ERβ), B7H1 (also known as PDL-1) and BRCA1 (breast cancer 1, early onset) were conducted using core needle biopsy tissue samples prior to treatment. Patients were given oral S-equol 50 mg, twice daily for approximately two weeks (10-21 days) prior to the scheduled oncologic surgeries or start of primary systemic therapy. Tumor samples were obtained from the surgery or the two-week repeat core needle biopsy. Post-treatment IHC evaluation of Ki67, total ERβ, phosphorylated ERβ (pY36) and BRCA1 were obtained. Ki67 reduction is a validated surrogate marker of both short and long term hormonal therapy efficacy in trials of human breast cancer and was compared pre- and post-treatment with S-equol. […] A c-DNA microarray platform was also used to discover downstream transcriptional targets of ERβ resulting from activation by S-equol.\nWomen eligible for the study had newly diagnosed, previously untreated, triple negative breast cancer, with an intact primary breast tumor of any size. All stages of the disease were eligible. They took S-equol during the time they underwent standard preoperative evaluation or pre-therapeutic work-up for advanced disease, such as staging procedures or central line placement. If primary surgery was performed, tissue leftover after standard diagnostic evaluation was used for the two-week biomarker assessment. […] See, FIG. 9.\nA standard procedure for acquiring core biopsy with a Bard 14-gauge needle was utilized for determining TNBC prior to enrollment. Whenever possible, the tumor tissues used for IHC analyses were acquired at the same time as the diagnostic core biopsy. The tissue samples were sent for staining of total and pY36 ERβ and Ki67, and analyzed. Testing for ERα, PR, and HER-2 was performed using validated methods. TNBC tumors were defined as less than 5% nuclear staining of carcinoma cells for ERα and PR and either 0, 1, or 2+ staining for HER-2 by IHC. Whole-Genome DASL HT platform from Illumina, which is designed for gene expression profiling with extremely low input of RNA (50 pg), was used to interrogate paired FFPE tissue obtained before and after exposure to S-equol.\nThe primary analysis estimated the geometric mean change of the Ki67 expression from baseline to two weeks. This was performed using a one-sample t-test of the pre/post differences in the log-transformed data, and summarized by the 95% confidence interval. […]"}, "Ki67 expression": {"test_system": "Ki67 expression", "conditions": "after two weeks, IMPACT trial; cited from earlier work"}, "TNBC [4]": {"test_system": "TNBC", "conditions": "cited from earlier work"}, "[5]": {"conditions": "of 17 evaluable patients, S-equol 50 mg twice daily"}}, "note": "Entries after “also recorded” stand apart in the source; their conditions may differ. Where two headings read alike, the source gives them in different places."}
{"molecule": "Oc1ccc([C@H]2COc3cc(O)ccc3C2)cc1", "note": "[S-equol]", "values": [{"measurement": "tumor size", "setting": "[1]; excised tumors (FIG. 4C)", "value": "reduce tumor size compared to control"}, {"measurement": "tumor weight", "setting": "[1]; anti-PD-1 200 μg every 3 days, S-equol 50 mg/kg per day (FIG. 4B)", "value": "reduce tumor weight compared to control"}, {"measurement": "tumor volume", "setting": "[1]; anti-PD-1 200 μg every 3 days, S-equol 50 mg/kg per day, over 35 days post-challenge (FIG. 4A)", "value": "reduce tumor volume compared to control"}, {"measurement": "growth of tumors suppressed compared to control", "setting": "[2]; daily subcutaneous S-equol 20 or 60 mg/kg per day", "value": 60, "unit": "%"}, {"measurement": "xenograft tumor growth", "setting": "[2]; in words (FIGS. 8, 15, 18B)", "value": "inhibits tumor growth in vivo; also recorded: reduces the growth of TNBC cells; also recorded: inhibited"}, {"measurement": "pY36-specific phosphorylation signal", "setting": "ERβ pY36", "value": "enhanced"}, {"measurement": "patients with 0-20% reduction in Ki-67", "setting": "TNBC [3]; [5]", "value": 7, "unit": "patients"}, {"measurement": "patients with greater than 20% reduction in Ki-67", "setting": "TNBC [3]; [5]", "value": "one"}, {"measurement": "patients with greater than 30% reduction in Ki-67", "setting": "TNBC [3]; [5]", "value": 4, "unit": "patients"}, {"measurement": "patients with no reduction in Ki-67", "setting": "TNBC [3]; [5]", "value": 5, "unit": "patients"}, {"measurement": "Ki67 change pre- vs post-treatment", "setting": "TNBC [3]; oral S-equol 50 mg twice daily, 10-21 days, TNBC patients", "value": "measurable decrease in Ki67; also recorded: measurable decline in Ki67"}]}
{"molecule": "CC(C)(C#N)c1cc(Cn2cncn2)cc(C(C)(C)C#N)c1", "note": "[anastrazole]", "values": [{"measurement": "change in the geometric mean of Ki67 expression", "setting": "Ki67 expression", "value": "−76", "unit": "%"}]}
{"molecule": "CC/C(=C(\\c1ccccc1)c1ccc(OCCN(C)C)cc1)c1ccccc1", "note": "[tamoxifen]", "values": [{"measurement": "change in the geometric mean of Ki67 expression", "setting": "Ki67 expression", "value": "−59.5", "unit": "%"}]}
{"molecule": "atezolizumab: an αPD-L1 antibody", "values": [{"measurement": "response rate", "setting": "TNBC [4]; 21 evaluable PD-L1 expressing TNBC tumors", "value": 19, "unit": "%"}]}
{"molecule": "avelumab: another αPD-L1 antibody", "values": [{"measurement": "response rate", "setting": "TNBC [4]; 168 TNBC tumors unselected for PD-L1 expression", "value": 8.6, "unit": "%"}]}
{"molecule": "pembrolizumab: an αPD-1 antibody", "values": [{"measurement": "response rate", "setting": "TNBC [4]; Phase 1, 27 women, pretreated chemotherapy resistant metastatic TNBC expressing PD-L1", "value": 18.4, "unit": "%"}]}
